Counter-ions that a name gives are not always drawn.
How the values were obtained:
[1] = target: T1, phosphorylated EGFR (pEGFR) (Homo sapiens, UniProt P00533); test: Detection of phosphorylated EGFR (pEGFR) in EGF-stimulated A431 cells; format: cell-based; settings: A431 cells (10% FBS), 4 hours incubation, EGF 30 ng/mL 10 minutes, AlphaLISA
T1 construct: performed to measure phosphorylated EGFR levels using A431 cells (10% FBS); endogenous in cells; host or cells: A431
How it was run: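 AlphaLISA read-out of EGFR phosphorylation after a 10-min EGF pulse (30 ng/mL final). A431 cells (10% FBS) had been exposed to compound for 4 h at 37 °C. IC50 was fitted from % inhibition normalised to DMSO and staurosporine control lysates.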

[2] = target: Ba/F3 ERBB2 A775_G776insYVMA (Homo sapiens, UniProt P04626, DUP772-775, cells depend on it); test: Cell viability assay, Ba/F3 ERBB2 A775_G776insYVMA; format: cell-based, mouse; settings: Ba/F3 ERBB2 YVMA cells, cell viability, 72 hours, CellTiter Glo; Table B5; read-out: Ba/F3 ERBB2 YVMA, IC50
Chain of Ba/F3 ERBB2 A775_G776insYVMA (P04626 with tags, fused parts or gaps DUP772-775): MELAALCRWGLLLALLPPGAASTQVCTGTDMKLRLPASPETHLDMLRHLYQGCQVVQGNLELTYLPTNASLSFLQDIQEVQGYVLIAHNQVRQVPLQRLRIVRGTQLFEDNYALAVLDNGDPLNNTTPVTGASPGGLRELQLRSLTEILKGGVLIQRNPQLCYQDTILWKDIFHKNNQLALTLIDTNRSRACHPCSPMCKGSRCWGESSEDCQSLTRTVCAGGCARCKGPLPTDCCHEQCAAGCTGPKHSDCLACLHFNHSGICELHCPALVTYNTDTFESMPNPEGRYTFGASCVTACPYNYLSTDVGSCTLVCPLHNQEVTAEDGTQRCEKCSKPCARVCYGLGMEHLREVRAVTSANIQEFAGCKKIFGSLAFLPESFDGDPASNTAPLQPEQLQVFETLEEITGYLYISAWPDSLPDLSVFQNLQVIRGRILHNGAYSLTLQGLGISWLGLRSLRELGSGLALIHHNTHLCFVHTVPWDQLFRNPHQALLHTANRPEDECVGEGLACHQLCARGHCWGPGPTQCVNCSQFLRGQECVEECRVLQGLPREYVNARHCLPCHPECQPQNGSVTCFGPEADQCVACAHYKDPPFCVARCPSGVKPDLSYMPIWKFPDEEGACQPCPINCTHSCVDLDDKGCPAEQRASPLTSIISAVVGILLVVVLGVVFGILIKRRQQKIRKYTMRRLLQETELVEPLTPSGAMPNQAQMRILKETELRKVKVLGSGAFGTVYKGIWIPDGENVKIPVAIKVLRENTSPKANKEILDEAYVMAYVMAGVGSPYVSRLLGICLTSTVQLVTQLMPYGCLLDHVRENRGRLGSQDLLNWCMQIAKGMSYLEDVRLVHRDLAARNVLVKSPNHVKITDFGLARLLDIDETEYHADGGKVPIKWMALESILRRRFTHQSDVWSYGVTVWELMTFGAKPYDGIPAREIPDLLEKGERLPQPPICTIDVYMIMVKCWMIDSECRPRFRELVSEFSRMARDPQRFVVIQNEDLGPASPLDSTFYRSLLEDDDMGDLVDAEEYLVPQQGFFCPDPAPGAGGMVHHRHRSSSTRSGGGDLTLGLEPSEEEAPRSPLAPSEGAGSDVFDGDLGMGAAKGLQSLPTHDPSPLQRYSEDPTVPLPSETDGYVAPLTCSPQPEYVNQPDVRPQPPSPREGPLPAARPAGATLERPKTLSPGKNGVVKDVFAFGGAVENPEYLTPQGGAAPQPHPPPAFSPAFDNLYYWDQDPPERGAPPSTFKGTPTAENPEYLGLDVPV
How it was run: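 Viability after 72 h compound treatment (37 °C, 5% CO2) was quantified by CellTiter-Glo luminescence of intracellular ATP, with sigmoidal dose-response fitting. Cells were retrovirally engineered Ba/F3 lines whose growth depends on the mutant human ERBB2 in place of IL-3, plated at 3000 per well.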

[3] = target: T2, phosphorylated ERBB2 (pERBB2) (Homo sapiens, UniProt P04626); test: Detection of phosphorylated ERBB2 (pERBB2) by ELISA in BT-474 cells; format: cell-based; settings: four hours incubation
T2 construct: endogenous in cells; host or cells: BT-474
T2 sequence (P04626 23-1255): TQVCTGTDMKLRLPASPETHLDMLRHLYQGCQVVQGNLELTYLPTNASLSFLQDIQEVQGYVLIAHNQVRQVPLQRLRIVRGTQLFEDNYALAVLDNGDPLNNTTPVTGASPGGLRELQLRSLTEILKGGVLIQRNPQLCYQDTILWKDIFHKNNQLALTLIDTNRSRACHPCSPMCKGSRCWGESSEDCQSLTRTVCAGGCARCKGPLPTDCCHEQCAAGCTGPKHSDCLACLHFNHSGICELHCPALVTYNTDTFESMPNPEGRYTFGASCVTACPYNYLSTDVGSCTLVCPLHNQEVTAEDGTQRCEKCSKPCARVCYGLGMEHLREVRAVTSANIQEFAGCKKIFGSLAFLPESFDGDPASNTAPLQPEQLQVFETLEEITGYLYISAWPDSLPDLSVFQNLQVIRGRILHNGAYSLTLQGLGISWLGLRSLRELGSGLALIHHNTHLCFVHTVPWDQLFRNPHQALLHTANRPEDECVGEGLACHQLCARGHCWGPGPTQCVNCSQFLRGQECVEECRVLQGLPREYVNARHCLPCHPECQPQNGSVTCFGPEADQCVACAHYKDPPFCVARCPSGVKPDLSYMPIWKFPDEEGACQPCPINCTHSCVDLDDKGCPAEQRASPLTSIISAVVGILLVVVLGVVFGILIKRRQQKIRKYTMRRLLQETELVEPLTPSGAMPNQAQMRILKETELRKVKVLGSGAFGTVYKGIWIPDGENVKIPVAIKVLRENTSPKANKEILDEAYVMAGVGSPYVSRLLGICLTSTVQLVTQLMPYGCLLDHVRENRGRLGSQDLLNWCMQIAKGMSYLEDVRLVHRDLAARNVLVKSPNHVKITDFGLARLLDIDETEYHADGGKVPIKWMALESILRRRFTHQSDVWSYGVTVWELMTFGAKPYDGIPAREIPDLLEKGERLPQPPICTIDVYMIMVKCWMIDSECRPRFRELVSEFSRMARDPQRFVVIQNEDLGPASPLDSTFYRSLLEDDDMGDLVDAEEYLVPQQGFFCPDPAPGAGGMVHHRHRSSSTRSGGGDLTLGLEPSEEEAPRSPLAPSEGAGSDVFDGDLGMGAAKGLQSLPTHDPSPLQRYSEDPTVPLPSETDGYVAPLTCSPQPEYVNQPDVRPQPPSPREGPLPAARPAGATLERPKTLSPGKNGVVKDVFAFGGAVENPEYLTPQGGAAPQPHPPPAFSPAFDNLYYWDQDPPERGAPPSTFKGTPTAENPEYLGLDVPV
How it was run: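 Phospho-ERBB2 in lysates was quantified by sandwich ELISA (A450, TMB) after 4 h compound exposure at 37 °C of BT-474 cells seeded at 2.0×10^4 per well. Compounds tested at 10 µM to 0.01 nM final in four-fold steps; activity normalized to DMSO (0.1%) high and cell-free low controls.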

T1 sequence (P00533 25-1210): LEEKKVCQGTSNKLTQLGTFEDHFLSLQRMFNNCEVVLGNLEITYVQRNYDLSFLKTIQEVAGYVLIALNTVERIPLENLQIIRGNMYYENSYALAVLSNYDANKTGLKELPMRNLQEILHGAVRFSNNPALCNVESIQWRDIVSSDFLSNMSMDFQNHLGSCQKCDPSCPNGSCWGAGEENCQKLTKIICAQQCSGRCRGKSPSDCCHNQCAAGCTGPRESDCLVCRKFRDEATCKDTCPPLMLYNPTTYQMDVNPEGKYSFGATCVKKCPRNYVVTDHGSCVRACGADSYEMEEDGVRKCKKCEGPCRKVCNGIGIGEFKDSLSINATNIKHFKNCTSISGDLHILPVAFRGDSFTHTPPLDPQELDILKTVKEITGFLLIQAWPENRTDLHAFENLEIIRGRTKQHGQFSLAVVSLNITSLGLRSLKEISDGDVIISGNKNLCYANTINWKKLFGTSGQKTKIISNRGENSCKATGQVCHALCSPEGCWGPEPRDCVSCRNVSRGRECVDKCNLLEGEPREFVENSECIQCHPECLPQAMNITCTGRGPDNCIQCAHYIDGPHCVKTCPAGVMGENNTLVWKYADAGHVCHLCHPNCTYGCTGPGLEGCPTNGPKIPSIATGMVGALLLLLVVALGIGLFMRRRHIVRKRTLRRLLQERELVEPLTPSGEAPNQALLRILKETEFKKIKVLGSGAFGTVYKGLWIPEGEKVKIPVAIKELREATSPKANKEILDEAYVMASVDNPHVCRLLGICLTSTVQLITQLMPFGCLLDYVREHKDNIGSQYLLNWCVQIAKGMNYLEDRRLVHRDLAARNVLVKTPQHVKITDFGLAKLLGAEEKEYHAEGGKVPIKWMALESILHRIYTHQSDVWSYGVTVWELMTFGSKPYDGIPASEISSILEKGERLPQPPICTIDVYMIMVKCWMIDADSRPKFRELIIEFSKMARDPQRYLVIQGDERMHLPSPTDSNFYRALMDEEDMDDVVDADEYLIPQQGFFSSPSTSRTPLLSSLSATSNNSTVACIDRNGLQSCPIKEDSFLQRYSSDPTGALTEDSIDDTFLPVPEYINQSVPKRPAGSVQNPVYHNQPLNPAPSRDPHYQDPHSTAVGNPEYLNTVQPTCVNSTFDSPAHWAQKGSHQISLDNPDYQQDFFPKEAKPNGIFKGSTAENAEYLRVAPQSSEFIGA

SMILES	IC50 [1]	GI50 [2]	IC50 [3]
Cc1cc(Nc2ncnc3ccc(N4CC/C(=C\CN(C)C)C4=O)nc23)ccc1Oc1ccn(C(F)F)c(=O)c1 [Compound 55, 1-(difluoromethyl)-4-[4-({6-[(3E)-3-[2-(dimethylamino)ethylidene]-2-oxopyrrolidin-1-yl]pyrido[3,2-d]pyrimidin-4-yl}amino)-2-methylphenoxy]pyridin-2-one]	0.25 µM	0.023 µM	0.0231 µM
C=C1CCN(c2cc3c(Nc4ccc(Oc5ccn6ncnc6c5)c(C)c4)ncnc3cc2OCCN(C)C)C1=O [Compound 56, 1-{7-[2-(dimethylamino)ethoxy]-4-[(3-methyl-4-{[1,2,4]triazolo[1,5-a]pyridin-7-yloxy}phenyl)amino]quinazolin-6-yl}-3-methylidenepyrrolidin-2-one]	> 10 µM	> 0.5 µM	6.52 µM
C=C1C(=O)N(c2ccc3ncnc(Nc4ccc(Oc5ccc6c(c5)ncn6C)c(C)c4)c3n2)C[C@H]1C [Compound 59, (4S)-4-methyl-1-[4-({3-methyl-4-[(1-methyl-1,3-benzodiazol-5-yl)oxy]phenyl}amino)pyrido[3,2-d]pyrimidin-6-yl]-3-methylidenepyrrolidin-2-one]	0.71 µM	0.0134 µM	0.0607 µM
Cc1cc(Nc2ncnc3cnc(N4CC/C(=C\CCN(C)C)C4=O)cc23)ccc1Oc1ccn2ncnc2c1 [Compound 60, (E)-1-(4-(4-([1,2,4]triazolo[1,5-a]pyridin-7-yloxy)-3-methylphenylamino)pyrido[3,4-d]pyrimidin-6-yl)-3-(3-(dimethylamino)propylidene)pyrrolidin-2-one formate]	3.04 µM	0.0225 µM	0.012 µM
Cc1cc(Nc2ncnc3ccc(N4CC/C(=C\CN(C)C)C4=O)nc23)ccc1Oc1ccc2nccnc2c1 [Compound 61, (E)-3-(2-(dimethylamino)ethylidene)-1-(4-(3-methyl-4-(quinoxalin-6-yloxy)phenylamino)pyrido[3,2-d]pyrimidin-6-yl)pyrrolidin-2-one]	1.01 µM	0.00715 µM	0.132 µM
Cc1cc(Nc2ncnc3ccc(N4CC/C(=C\CN(C)C)C4=O)nc23)ccc1Oc1cccnc1 [Compound 62, (3E)-3-[2-(dimethylamino)ethylidene]-1-(4-{[3-methyl-4-(pyridin-3-yloxy)phenyl]amino}pyrido[3,2-d]pyrimidin-6-yl)pyrrolidin-2-one]	0.212 µM	0.00436 µM	0.0239 µM
CCn1cnc2cc(Oc3ccc(Nc4ncnc5ccc(N6CC/C(=C\CN(C)C)C6=O)nc45)cc3C)ccc21 [Compound 65, (3E)-3-[2-(dimethylamino)ethylidene]-1-[4-({4-[(1-ethyl-1,3-benzodiazol-5-yl)oxy]-3-methylphenyl}amino)pyrido[3,2-d]pyrimidin-6-yl]pyrrolidin-2-one]	> 10 µM	0.0364 µM	0.128 µM
Cc1cc(Nc2ncnc3ccc(N4CC/C(=C\CN(C)C)C4=O)nc23)ccc1Oc1ccc2ocnc2c1 [Compound 66, (E)-1-(4-((4-(benzo[d]oxazol-5-yloxy)-3-methylphenyl)amino)pyrido[3,2-d]pyrimidin-6-yl)-3-(2-(dimethylamino)ethylidene)pyrrolidin-2-one]	0.0936 µM	0.00195 µM	0.0342 µM
Cc1cc(Nc2ncnc3ccc(N4CC/C(=C\CN(C)C)C4=O)nc23)ccc1Oc1ccc2scnc2c1 [Compound 67, (E)-1-(4-((4-(benzo[d]thiazol-5-yloxy)-3-methylphenyl)amino)pyrido[3,2-d]pyrimidin-6-yl)-3-(2-(dimethylamino)ethylidene)pyrrolidin-2-one]	0.0532 µM	0.00182 µM	0.0442 µM
Cc1cc(Nc2ncnc3ccc(N4CC/C(=C\CN(C)C)C4=O)nc23)ccc1Oc1ccc2c(c1)nnn2C [Compound 68, (3E)-3-[2-(dimethylamino)ethylidene]-1-[4-({3-methyl-4-[(1-methyl-1,2,3-benzotriazol-5-yl)oxy]phenyl}amino)pyrido[3,2-d]pyrimidin-6-yl]pyrrolidin-2-one]	0.973 µM	0.00381 µM	0.0305 µM
Cc1c(Oc2ccc3c(c2)ncn3C)ccc(Nc2ncnc3ccc(N4CC/C(=C\CN(C)C)C4=O)nc23)c1F [Compound 69, (3E)-3-[2-(dimethylamino)ethylidene]-1-[4-({2-fluoro-3-methyl-4-[(1-methyl-1,3-benzodiazol-5-yl)oxy]phenyl}amino)pyrido[3,2-d]pyrimidin-6-yl]pyrrolidin-2-one]	> 10 µM	0.00357 µM	0.0564 µM
Cc1cc(Nc2ncnc3ccc(N4CC/C(=C\CN(C)C)C4=O)nc23)c(F)cc1Oc1ccc2c(c1)ncn2C [Compound 70, (3E)-3-[2-(dimethylamino)ethylidene]-1-[4-({2-fluoro-5-methyl-4-[(1-methyl-1,3-benzodiazol-5-yl)oxy]phenyl}amino)pyrido[3,2-d]pyrimidin-6-yl]pyrrolidin-2-one]	1.99 µM	0.00429 µM	0.0344 µM
Cc1cc(Nc2ncnc3ccc(N4CC/C(=C\CN(C)C)C4=O)nc23)ccc1Oc1ccn2ccnc2c1 [Compound 71, (3E)-3-[2-(dimethylamino)ethylidene]-1-{4-[(4-{imidazo[1,2-a]pyridin-7-yloxy}-3-methylphenyl)amino]pyrido[3,2-d]pyrimidin-6-yl}pyrrolidin-2-one]	0.273 µM	0.00256 µM	0.0257 µM
CCc1ccc(Oc2ccc(Nc3ncnc4ccc(N5CC/C(=C\CN(C)C)C5=O)nc34)cc2C)cn1 [Compound 72, (E)-3-(2-(dimethylamino)ethylidene)-1-(4-((4-((6-ethylpyridin-3-yl)oxy)-3-methylphenyl)amino)pyrido[3,2-d]pyrimidin-6-yl)pyrrolidin-2-one]	1.88 µM	0.00537 µM	0.0449 µM
CCc1ccc(Oc2ccc(Nc3ncnc4cnc(N5CC/C(=C\CN(C)C)C5=O)cc34)cc2C)cn1 [Compound 73, (E)-3-(2-(dimethylamino)ethylidene)-1-(4-((4-((6-ethylpyridin-3-yl)oxy)-3-methylphenyl)amino)pyrido[3,4-d]pyrimidin-6-yl)pyrrolidin-2-one]	0.514 µM	0.022 µM	0.0415 µM
Cc1cc(Nc2ncnc3cnc(N4CC/C(=C\CN(C)C)C4=O)cc23)ccc1Oc1ccn2ncnc2c1 [Compound 74, (3E)-3-[2-(dimethylamino)ethylidene]-1-{4-[(3-methyl-4-{[1,2,4]triazolo[1,5-a]pyridin-7-yloxy}phenyl)amino]pyrido[3,4-d]pyrimidin-6-yl}pyrrolidin-2-one]	2.97 µM	0.00517 µM	0.00543 µM
Cc1ccc(Oc2ccc(Nc3ncnc4cnc(N5CC/C(=C\CN(C)C)C5=O)cc34)cc2C)cn1 [Compound 75, (3E)-3-[2-(dimethylamino)ethylidene]-1-[4-({3-methyl-4-[(6-methylpyridin-3-yl)oxy]phenyl}amino)pyrido[3,4-d]pyrimidin-6-yl]pyrrolidin-2-one]	0.697 µM	0.0104 µM	0.0204 µM
Cc1cc(Nc2ncnc3cnc(N4CC/C(=C\CN(C)C)C4=O)cc23)c(F)cc1Oc1ccc2c(c1)ncn2C [Compound 76, (3E)-3-[2-(dimethylamino)ethylidene]-1-[4-({2-fluoro-5-methyl-4-[(1-methyl-1,3-benzodiazol-5-yl)oxy]phenyl}amino)pyrido[3,4-d]pyrimidin-6-yl]pyrrolidin-2-one]	> 10 µM	> 0.5 µM	> 10 µM
Cc1c(Oc2ccc3c(c2)ncn3C)ccc(Nc2ncnc3cnc(N4CC/C(=C\CN(C)C)C4=O)cc23)c1F [Compound 77, (3E)-3-[2-(dimethylamino)ethylidene]-1-[4-({2-fluoro-3-methyl-4-[(1-methyl-1,3-benzodiazol-5-yl)oxy]phenyl}amino)pyrido[3,4-d]pyrimidin-6-yl]pyrrolidin-2-one]	7.49 µM	0.00361 µM	0.0184 µM
Cc1c(Oc2ccn3ncnc3c2)ccc(Nc2ncnc3ccc(N4CC/C(=C\CN(C)C)C4=O)nc23)c1F [Compound 78, (3E)-3-[2-(dimethylamino)ethylidene]-1-{4-[(2-fluoro-3-methyl-4-{[1,2,4]triazolo[1,5-a]pyridin-7-yloxy}phenyl)amino]pyrido[3,2-d]pyrimidin-6-yl}pyrrolidin-2-one hydrochloride]	1.57 µM	0.00992 µM	0.0168 µM
Cc1cc(Nc2ncnc3ccc(N4CC/C(=C\CN(C)C)C4=O)nc23)c(F)cc1Oc1ccn2ncnc2c1 [Compound 79, (3E)-3-[2-(dimethylamino)ethylidene]-1-{4-[(2-fluoro-5-methyl-4-{[1,2,4]triazolo[1,5-a]pyridin-7-yloxy}phenyl)amino]pyrido[3,2-d]pyrimidin-6-yl}pyrrolidin-2-one]	> 10 µM	0.00292 µM	0.00877 µM

Source: patent publication US20240116921A1, “LACTAM (HETERO)[…] DERIVATIVES AS INHIBITORS OF ERBB2” (EnLiven Therapeutics, Inc., priority 2020, published 2024)
